Data reported in patent US10597388B2, “Pyridazinone herbicides” (FMC CORPORATION, priority 2014, dated 2020).

Assays:
Experiment in all cases: Test E greenhouse herbicide test, pre- and postemergence
Format in all cases: in vivo
[1] = tested on: nightshade (eastern black nightshade, Solanum ptycanthum); settings: Preemergence
Procedure, shortened: (§1)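 Scores (0–100, visual, vs controls) reflect greenhouse growth of 14 to 21 d after treatment. Application was pre-emergence to silt loam or post-emergence at the 1- to 4-leaf stage.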

[2] = tested on: goosegrass (Eleusine indica); settings: Preemergence
Procedure, shortened: as §1

[3] = tested on: surinam grass (Brachiaria decumbens); settings: Preemergence
Procedure, shortened: as §1

[4] = tested on: crabgrass, large (large crabgrass, Digitaria sanguinalis); settings: Preemergence
Procedure, shortened: as §1

[5] = tested on: barnyardgrass (Echinochloa crus-galli)
Procedure, shortened: as §1

[6] = tested on: panicum, fall (fall panicum, Panicum dichotomiflorum)
Procedure, shortened: as §1

[7] = tested on: velvetleaf (Abutilon theophrasti); settings: Preemergence
Procedure, shortened: as §1

corn (Zea mays) = tested on: corn (Zea mays)
Procedure, shortened: as §1

[8] = tested on: crabgrass, Brazilian (Brazilian crabgrass, Digitaria horizontalis)
Procedure, shortened: as §1

[9] = tested on: horseweed (Conyza canadensis); settings: Postemergence
Procedure, shortened: as §1

[10] = tested on: foxtail, giant (giant foxtail, Setaria faberii); settings: Preemergence
Procedure, shortened: as §1

[11] = tested on: lambsquarters (Chenopodium album); settings: Preemergence
Procedure, shortened: as §1

kochia (Kochia scoparia) = tested on: kochia (Kochia scoparia)
Procedure, shortened: as §1

[12] = tested on: Italian ryegrass (Lolium multiflorum)
Procedure, shortened: as §1

[13] = tested on: arrowleaf sida (Sida rhombifolia)
Procedure, shortened: as §1

[14] = tested on: foxtail, green (green foxtail, Setaria viridis); settings: Preemergence
Procedure, shortened: as §1

[15] = tested on: sandbur (southem sandbur, Cenchrus echinatus)
Procedure, shortened: as §1

[16] = 62 g ai/ha, scale 0 to 100 (0 no effect, 100 complete control)
[17] = 125 g ai/ha, scale 0 to 100 (0 no effect, 100 complete control)
[18] = 31 g ai/ha, scale 0 to 100, 0 no effect, 100 complete control
[19] = 250 g ai/ha, visual, scale 0 no effect to 100 complete control
[20] = 62 g ai/ha, Postemergence, scale 0 to 100 (0 no effect, 100 complete control)
[21] = 62 g ai/ha, Preemergence, scale 0 to 100 (0 no effect, 100 complete control)
[22] = 125 g ai/ha, Postemergence, scale 0 to 100 (0 no effect, 100 complete control)
[23] = 125 g ai/ha, Preemergence, scale 0 to 100 (0 no effect, 100 complete control)
[24] = 250 g ai/ha, Postemergence, scale 0 to 100 (0 no effect, 100 complete control)
[25] = Postemergence, 31 g ai/ha, visual, scale 0 no effect to 100 complete control
[26] = Preemergence, 31 g ai/ha, scale 0 to 100, 0 no effect, 100 complete control
[27] = Preemergence, 250 g ai/ha, visual, scale 0 no effect to 100 complete control

CCOC(=O)Oc1c(C)nn(C)c(=O)c1-c1c(C)sc2c(C)cc(C)cc12 [Compound 83]
95: Plant response rating, Surinam Grass [3, 19] | Plant response rating, Panicum, Fall [6, 21] | Plant response rating, Foxtail, Giant [10, 18] | Plant response rating, Ryegrass, Italian [12, 21] | Plant response rating, Foxtail, Green [14, 17]
98: Plant response rating, Panicum, Fall [6, 27] | Plant response rating, Foxtail, Giant [10, 16] | Plant response rating, Lambsquarters [11, 16] | Plant response rating, Ryegrass, Italian [12, 23]
0: Plant response rating, Goosegrass [2, 16] | Plant response rating, Goosegrass [2, 18] | Plant response rating, Crabgrass, Large [4, 18] | Plant response rating, Barnyardgrass [5, 26] | Plant response rating, Velvetleaf [7, 18] | Plant response rating, Corn (corn (Zea mays); [20]) | Plant response rating, Corn (corn (Zea mays); [21]) | Plant response rating, Corn (corn (Zea mays); [22]) | Plant response rating, Corn (corn (Zea mays); [23]) | Plant response rating, Corn (corn (Zea mays); [25]) | Plant response rating, Corn (corn (Zea mays); [26]) | Plant response rating, Corn (corn (Zea mays); [27]) | Plant response rating, Crabgrass, Brazil [8, 26] | Plant response rating, Kochia (kochia (Kochia scoparia); [21]) | Plant response rating, Kochia (kochia (Kochia scoparia); [23]) | Plant response rating, Kochia (kochia (Kochia scoparia); [26]) | Plant response rating, Foxtail, Green [14, 18]
5: Plant response rating, Goosegrass [2, 17] | Plant response rating, Crabgrass, Large [4, 16]
15: Plant response rating, Arrowleaf Sida [13, 26]
90: Plant response rating, Panicum, Fall [6, 24] | Plant response rating, Panicum, Fall [6, 26] | Plant response rating, Horseweed ([9]; 250 g ai/ha, scale 0 to 100 (0 no effect, 100 complete control))
85: Plant response rating, Surinam Grass [3, 17] | Plant response rating, Horseweed [9, 17] | Plant response rating, Ryegrass, Italian [12, 24]
100: Plant response rating, Nightshade [1, 17] | Plant response rating, Nightshade [1, 19] | Plant response rating, Panicum, Fall [6, 23] | Plant response rating, Velvetleaf [7, 19] | Plant response rating, Foxtail, Giant [10, 17] | Plant response rating, Foxtail, Giant [10, 19] | Plant response rating, Lambsquarters [11, 17] | Plant response rating, Lambsquarters [11, 18] | Plant response rating, Lambsquarters [11, 19] | Plant response rating, Ryegrass, Italian [12, 27]
30: Plant response rating, Barnyardgrass [5, 21] | Plant response rating, Crabgrass, Brazil [8, 25]
60: Plant response rating, Surinam Grass [3, 16] | Plant response rating, Kochia (kochia (Kochia scoparia); [20]) | Plant response rating, Ryegrass, Italian [12, 20] | Plant response rating, Ryegrass, Italian [12, 25] | Plant response rating, Arrowleaf Sida [13, 22] | Plant response rating, Arrowleaf Sida [13, 24]
20: Plant response rating, Crabgrass, Large [4, 19] | Plant response rating, Sandbur [15, 26]
10: Plant response rating, Corn (corn (Zea mays); [24]) | Plant response rating, Crabgrass, Brazil [8, 21]
75: Plant response rating, Barnyardgrass [5, 27] | Plant response rating, Horseweed ([9]; 31 g ai/ha, visual, scale 0 no effect to 100 complete control) | Plant response rating, Kochia (kochia (Kochia scoparia); [22]) | Plant response rating, Kochia (kochia (Kochia scoparia); [27]) | Plant response rating, Sandbur [15, 23]
70: Plant response rating, Panicum, Fall [6, 20] | Plant response rating, Panicum, Fall [6, 25] | Plant response rating, Velvetleaf [7, 17] | Plant response rating, Foxtail, Green [14, 19] | Plant response rating, Sandbur [15, 21] | Plant response rating, Sandbur [15, 24]
65: Plant response rating, Surinam Grass [3, 18] | Plant response rating, Kochia (kochia (Kochia scoparia); [24]) | Plant response rating, Arrowleaf Sida [13, 27] | Plant response rating, Sandbur [15, 22]
80: Plant response rating, Panicum, Fall [6, 22] | Plant response rating, Crabgrass, Brazil [8, 27] | Plant response rating, Horseweed [9, 16] | Plant response rating, Ryegrass, Italian [12, 22] | Plant response rating, Ryegrass, Italian [12, 26] | Plant response rating, Sandbur [15, 27]
35: Plant response rating, Nightshade [1, 18] | Plant response rating, Barnyardgrass [5, 23] | Plant response rating, Velvetleaf [7, 16] | Plant response rating, Arrowleaf Sida [13, 23]
25: Plant response rating, Goosegrass [2, 19] | Plant response rating, Arrowleaf Sida [13, 21]
40: Plant response rating, Crabgrass, Large [4, 17] | Plant response rating, Barnyardgrass [5, 22] | Plant response rating, Barnyardgrass [5, 25] | Plant response rating, Crabgrass, Brazil [8, 20] | Plant response rating, Kochia (kochia (Kochia scoparia); [25]) | Plant response rating, Foxtail, Green [14, 16] | Plant response rating, Sandbur [15, 25]
50: Plant response rating, Nightshade [1, 16] | Plant response rating, Barnyardgrass [5, 20] | Plant response rating, Barnyardgrass [5, 24] | Plant response rating, Crabgrass, Brazil [8, 22] | Plant response rating, Crabgrass, Brazil [8, 23] | Plant response rating, Crabgrass, Brazil [8, 24] | Plant response rating, Arrowleaf Sida [13, 20] | Plant response rating, Arrowleaf Sida [13, 25]
